In patent EP2963103A1, “pH-sensitive nanocapsules” (Henkel AG & Co. KGaA, priority 2014, dated 2016):

Columns and labels:
[1] = Hansen-Parameter, cited from earlier work; for δp: dipolar forces; for δd: dispersion forces; for δh: hydrogen bonds
[2] = Encapsulation efficiency EEsc / solid content, gravimetric after freeze-drying; assay type: physicochemical; conditions: fragrance encapsulated with Monomermischung S1
Excerpt: Der Feststoffgehalt (SC) wurde […] Proben bestimmt. Vorher wurden zwei verschiedene theoretische Feststoffgehalte berechnet. SC1 ohne die Masse des Riechstoffs und SC2 […] Bestimmung des […] und […] bei der Messung des Feststoffgehalts SC2 mitbestimmt. Unter […] bei Polymerisation kann durch den Vergleich des praktisch gemessenen Feststoffgehalts SC mit den oben genannten theoretischen Werten die Menge an […]. Der Anteil an […] zur Einsatzmenge bei […].: Encapsulation Efficiency) EEsc in Prozent angegeben. Der theoretisch berechneten Feststoffgehalt SC1 betrugt 14,3%. Die Angabe […] 1 zeigt, dass der Riechstoff eingeschlossen wurde und […]. Die […]. Die in den Beispielen 1 und 2 verwendete Monomermischung S1 wurde für die Verkapselung weiterer Riechstoffe verwendet und die […] oben […]. Die […]

[3] = Hansen-Parameter, δt^2 = δd^2 + δp^2 + δh^2
Excerpt: Damit die hydrophobe Verbindung effektiv verkapselt werden kann, ist es erforderlich, dass die Verbindung ausreichend hydrophob ist, so dass sie nicht mit dem aus den Monomeren gebildeten Polymer derart interagiert, dass sie dieses übermäßig quellen und dadurch für die Verbindung stärker permeabel werden lässt. Es ist daher bevorzugt, dass die mindestens eine hydrophobe Verbindung einen Hansen-Parameter δt von weniger als 20, insbesondere weniger als 19 hat; und/oder einen Hansen-Parameter δh von weniger als 10, insbesondere weniger als 6 hat.
Der Hansen-Parameter ist ein in der Polymerchemie weit verbreiteter Parameter zum Vergleich der Löslichkeit bzw. Mischbarkeit von verschiedenen Substanzen. Dieser Parameter wurde von Charles Hansen entwickelt, um die Löslichkeit eines Materials in einem anderen vorherzusagen. Dabei wird die Kohäsionsenergie einer Flüssigkeit betrachtet, welche in mindestens drei verschiedene Kräfte eingeteilt werden kann: (a) Dispersionskräfte zwischen den Molekülen δd, (b) Dipolare intermolekulare Kräfte zwischen den Molekülen δp und (c) Wasserstoffbrückenbindungen zwischen den Molekülen δh. Diese drei Parameter können zu einem Parameter δt zusammengefasst werden nach der Formel δt^2 = δd^2 + δp^2 + δh^2. Je ähnlicher der Hansen-Parameter von unterschiedlichen Materialien ist, desto besser sind diese ineinander mischbar.
Tabelle 3 gibt die Hansen-Parameter für die getesteten Riechstoffe an. Tabelle 3: Hansen-Parameter

Verkapselungseffizienz EEsc [2] | δt [3] | Compound | δp [1] | δd [1] | δh [1]
4% | 19,72 | C=CC(C)CCCC(C)(C)O (centres unmarked) [Dihydromyrcenol] | 4,3 | 16 | 10,7
– | 18,49 | CC/C=C\CC1=C(C)CCC1=O [Jasmone] | 5,2 | 17 | 5,1
77% | 18,10 | CC(C=O)Cc1ccc(C(C)(C)C)cc1 (centres unmarked) [Lilial, 3-(4-tert-Butylphenyl)-2-methylpropanal] | 2,3 | 17,3 | 4,8
– | 24,09 | OCCc1ccccc1 [Phenylethylalkohol] | 7,6 | 18,8 | 13
52% | 18,94 | C/C=C\C(=O)C1C(C)=CCCC1(C)C (stereo not drawn) [α-Damascone] | 5,7 | 17,1 | 5,8
91% | – | CC1=CCC2CC1C2(C)C (stereo not drawn) [α-Pinen] | 4,3 | 15,6 | 0
72% | 18,84 | C/C=C/C(=O)C1=C(C)CCCC1(C)C [β-Damascone] | 4,9 | 17,4 | 5,3
0% | – | Hexenol | 6,7 | 16 | 13,4

Compound | Verkapselungseffizienz EEsc [2] | δt [3] | δp [1] | δd [1] | δh [1]
CC(C)=CCCC(C)CC=O (centres unmarked) [Citronellal] | 72% | 18,01 | 5,9 | 16,2 | 5,2
CC(C)=CCCC(C)CCO (centres unmarked) [Citronellol] | 25% | 19,97 | 4,8 | 16,1 | 10,8
CC(C)=CCC/C(C)=C/CO [Geraniol] | 0% | 20,25 | – | – | –
Ionon | 46% | 18,94 | 5,7 | 17,1 | 5,8
